On the set-up of data set [1]: method as in PMID 18754654, PMID 21838594. To be noted: in mice; cited from earlier work.
A short description of data set [2]: Single dose PK: plasma and tumour tissue drug concentrations by HPLC in HCT116 xenograft-bearing mice. Type of data set: in vivo. To be noted: for AUC: po; for AUC / GDC-0941 AUC Tumour / PD 0325901 AUC Tumour: over 24 hours, mean ± SD. How it is done:
Blood was collected into heparinised tubes, and plasma was separated and stored at −20°C until analysed. Tumours were removed, snap frozen in liquid nitrogen and stored at −80°C prior to PK and PD analyses, as described below.
For PK analyses, drug was extracted from 60 µl aliquots of samples by protein precipitation with 9 volumes of acetonitrile (MeCN). Samples were centrifuged at 3000g for 5 minutes at 4°C, and 500 µl of the supernatant evaporated to dryness under nitrogen gas at 30°C using a Zymark Evaporator (Caliper Life Sciences Limited, Cheshire, UK). Samples were reconstituted in 100 µl HPLC mobile phase consisting of 40% acetonitrile and 60% (v/v) 0.1% formic acid pH 4.0 (v/v), and 50 µl of the supernatant applied to a 10 cm Xterra Waters 186000436 C18 3.5 µm column (Waters, Hertfordshire, UK) fitted with an in line filter. Compounds were eluted with the above mobile phase at 1 ml/min using a Waters Millennium Chromatography system (Waters, Hertfordshire, UK). Analytes were detected by UV absorbance at 275 and 315 nm, at retention times of 6.8–7.3 and 3.9–4.3 minutes for PD 0325901 and GDC-0941, respectively. For analysis of drug in tumour tissue, tumours were homogenised in 3 volumes of PBS (w/v) and 50 µl aliquots extracted with 9 volumes of MeCN, and centrifuged, evaporated and analysed as described above.

Details of data set [3]: method as in PMID 20332327. The conditions noted are these: single agent; such as retinal vein occlusion; cited from earlier work.
For data set [4] the following is noted: rat, in vivo, 100 mg/kg; cited from earlier work.
The conditions of data set [5]: cited from earlier work.
Where [6] appears, read: single p.o. dose 10 mg/kg PD 0325901+10 mg/kg GDC-0941.

Molecules are shown by their SMILES. Where two headings read alike, the source gives them in different places. Marks after values point to notes of the source that are not given here. Some results are limits rather than exact numbers.

Take `CS(=O)(=O)N1CCN(Cc2cc3nc(-c4cccc5[nH]ncc45)nc(N4CCOCC4)c3s2)CC1` [GDC-0941, 2-(1H-Indazol-4-yl)-6-(4-methanesulfonyl-piperazin-1-ylmethyl)-4-morpholin-4-yl-thieno[3,2-d]pyrimidine]: in data set [1], the oral bioavailability is given as 78%. In addition, the “increase in plasma AUC with 10-fold increment in dose” value in data set [2] (GDC-0941 100 versus 10 mg/kg) turned out to be 7 fold. In addition, in data set [2] (GDC-0941 100 versus 10 mg/kg), the “increase in tumour AUC following a 10-fold increase in dose” value turned out to be 15 fold. The AUC in data set [2] (mouse, plasma, 10 mg/kg, single p.o. dose 10 mg/kg GDC-0941 alone, read-out: GDC-0941 AUC Plasma (converted)) is 5.4 µM·h; in data set [2] (mouse, plasma, 10 mg/kg, single p.o. dose 10 mg/kg PD 0325901+10 mg/kg GDC-0941, read-out: GDC-0941 AUC Plasma (converted)), 6.33 µM·h; in data set [2] (mouse, plasma, 100 mg/kg, single p.o. dose 100 mg/kg GDC-0941 alone, read-out: GDC-0941 AUC Plasma (converted)), 39.4 µM·h; in data set [2] (mouse, plasma, single p.o. dose 1 mg/kg PD 0325901+10 mg/kg GDC-0941, read-out: GDC-0941 AUC Plasma (converted)), 6.55 µM·h; in data set [2] (mouse, plasma, single p.o. dose 1 mg/kg PD 0325901+100 mg/kg GDC-0941, read-out: GDC-0941 AUC Plasma (converted)), 22.6 µM·h; in data set [2] (mouse, plasma, single p.o. dose 10 mg/kg PD 0325901+100 mg/kg GDC-0941, read-out: GDC-0941 AUC Plasma (converted)), 58.8 µM·h. Further, the “GDC-0941 AUC Tumour” value in data set [2] (single p.o. dose 1 mg/kg PD 0325901+10 mg/kg GDC-0941) was 396±144^j µM.min; in data set [2] (single p.o. dose 1 mg/kg PD 0325901+100 mg/kg GDC-0941) it was 3196±183^h µM.min; in data set [2] (single p.o. dose 10 mg/kg GDC-0941 alone), 364±130^g µM.min; in data set [2] (setting [6]), 124±51^g,j µM.min; in data set [2] (single p.o. dose 10 mg/kg PD 0325901+100 mg/kg GDC-0941) it was 2649±861^i µM.min; in data set [2] (single p.o. dose 100 mg/kg GDC-0941 alone), 5422±962^h,i µM.min.
With `O=C(NOC[C@H](O)CO)c1ccc(F)c(F)c1Nc1ccc(I)cc1F` [PD 0325901], in data set [3], the “toxicity in clinical trials” value was “ocular and neurological toxicity”. Further, in data set [4], the “toxicity of oral and i.v. doses” value is “non-toxic”. Besides, in data set [2] (1 or 10 mg/kg PD 0325901 alone versus with GDC-0941), the “increase in plasma AUC of PD 0325901 following concomitant dosing with GDC-0941” value is listed as 2–3 fold. Besides, the “increase in plasma AUC with 10-fold increment in dose” value in data set [2] (PD 0325901 10 versus 1 mg/kg) worked out at 15 fold. For the same compound, in data set [2] (all time points after 1 mg/kg PD 0325901, per g of tumour material), the “tumour tissue level (undetectable, limit of detection)” value was below 0.4 nmol/g. Also, the concentration at 24 h in data set [2] (mouse, plasma, oral, at 24 hours after 1 mg/kg PD 0325901, read-out: plasma level (undetectable, limit of detection)) is below 100 nM. In addition, the AUC in data set [2] (mouse, plasma, 1 mg/kg, single p.o. dose 1 mg/kg PD 0325901 alone, read-out: PD 0325901 AUC Plasma (converted)) is 1.38 µM·h; in data set [2] (mouse, plasma, 10 mg/kg, single p.o. dose 10 mg/kg PD 0325901+10 mg/kg GDC-0941, read-out: PD 0325901 AUC Plasma (converted)), 40 µM·h; in data set [2] (mouse, plasma, 10 mg/kg, single p.o. dose 10 mg/kg PD 0325901 alone, read-out: PD 0325901 AUC Plasma (converted)) it was 21.6 µM·h; in data set [2] (mouse, plasma, single p.o. dose 1 mg/kg PD 0325901+10 mg/kg GDC-0941, read-out: PD 0325901 AUC Plasma (converted)) it was 2.73 µM·h; in data set [2] (mouse, plasma, single p.o. dose 1 mg/kg PD 0325901+100 mg/kg GDC-0941, read-out: PD 0325901 AUC Plasma (converted)), 3.15 µM·h; in data set [2] (mouse, plasma, single p.o. dose 10 mg/kg PD 0325901+100 mg/kg GDC-0941, read-out: PD 0325901 AUC Plasma (converted)), 54.1 µM·h. In addition, the “PD 0325901 AUC Tumour” value in data set [2] (setting [6]) is 399±72^d,f µM.min; in data set [2] (single p.o. dose 10 mg/kg PD 0325901 alone), 1082±232^d,e µM.min. In addition, in data set [5], the maximum tolerated dose was 25 mg/kg.

What is called AUC is the area under the concentration-time curve, a measure of exposure.

The values above are taken from article PMC3858267, “The Enhanced In Vivo Activity of the Combination of a MEK and a PI3K Inhibitor Correlates with [^18F]-FLT PET in Human Colorectal Cancer Xenograft Tumour-Bearing Mice” (PLoS ONE, 2013).
